Measurements published in patent US20190284148A1, “MICROBIOCIDAL OXADIAZOLE DERIVATIVES” (SYNGENTA PARTICIPATIONS AG, priority 2016, published 2019).

Legend:
[1] = test system: Glomerella Lagenarium (Colletotrichum Lagenarium); test: Glomerella lagenarium (Colletotrichum lagenarium) liquid culture / cucumber / preventative (anthracnose); type: cell-based; details: Colletotrichum orbiculare; 20 ppm in the applied formulation; liquid culture in PDB, 24° C., 3 to 4 days after application; read-out: disease control compared to untreated control (inhibition of growth measured photometrically)
Experimental: Mycelia fragments or conidia suspensions of a fungus prepared either freshly from liquid cultures of the fungus or from cryogenic storage, are directly mixed into nutrient broth. DMSO solutions of the test compound (max. 10 mg/ml) are diluted with 0.025% Tween20 by a factor of 50 and 10 μl of this solution is pipetted into a microtiter plate (96-well format). The nutrient broth containing the fungal spores/mycelia fragments is then added to give an end concentration of the tested compound. The test plates are incubated in the dark at 24° C. and 96% relative humidity. The inhibition of fungal growth is determined photometrically after 2 to 7 days, depending on the pathosystem, and percent antifungal activity relative to the untreated check is calculated.
Conidia of the fungus from cryogenic storage are directly mixed into nutrient broth (PDB—potato dextrose broth). After placing a (DMSO) solution of test compound into a microtiter plate (96-well format), the nutrient broth containing the fungal spores is added. The test plates are incubated at 24° C. and the inhibition of growth is measured photometrically 3 to 4 days after application.
The following compounds at 20 ppm in the applied formulation give at least 80% disease control in this test when compared to untreated control under the same conditions, which show extensive disease development.

[2] = test system: Puccinia Recondita f. sp. Tritici; test: Puccinia recondita f. sp. tritici / wheat / leaf disc preventative (brown rust); type: in vivo; details: foliar, 200 ppm in the applied formulation, wheat leaf segments cv. Kanzler, preventative (inoculated 1 day after application), assessed 7 to 9 days after application, read-out: disease control compared to untreated control leaf disks
Experimental: Leaf disks or leaf segments of various plant species are cut from plants grown in a greenhouse. The cut leaf disks or segments are placed in multiwell plates (24-well format) onto water agar. The leaf disks are sprayed with a test solution before (preventative) or after (curative) inoculation. Compounds to be tested are prepared as DMSO solutions (max. 10 mg/ml) which are diluted to the appropriate concentration with 0.025% Tween20 just before spraying. The inoculated leaf disks or segments are incubated under defined conditions (temperature, relative humidity, light, etc.) according to the respective test system. A single evaluation of disease level is carried out 3 to 14 days after inoculation, depending on the pathosystem. Percent disease control relative to the untreated check leaf disks or segments is then calculated. Wheat leaf segments cv. Kanzler were placed on agar in multiwell plates (24-well format) and sprayed with the formulated test compound diluted in water. The leaf disks were inoculated with a spore suspension of the fungus 1 day after application. The inoculated leaf segments were incubated at 19° C. and 75% relative humidity (rh) under a light regime of 12 hours light/12 hours darkness in a climate cabinet and the activity of a compound was assessed as percent disease control compared to untreated when an appropriate level of disease damage appears in untreated check leaf segments (7 to 9 days after application). The following compounds at 200 ppm in the applied formulation give at least 80% disease control in this test when compared to untreated control leaf disks under the same conditions, which show extensive disease development.

[3] = test system: Puccinia Recondita f. sp. Tritici; test: Puccinia recondita f. sp. tritici / wheat / leaf disc curative (brown rust); type: in vivo; details: foliar, 200 ppm in the applied formulation, wheat leaf segments cv. Kanzler, curative (applied 1 day after inoculation), assessed 6 to 8 days after application, read-out: disease control compared to untreated control leaf disks
Experimental: Leaf disks or leaf segments of various plant species are cut from plants grown in a greenhouse. The cut leaf disks or segments are placed in multiwell plates (24-well format) onto water agar. The leaf disks are sprayed with a test solution before (preventative) or after (curative) inoculation. Compounds to be tested are prepared as DMSO solutions (max. 10 mg/ml) which are diluted to the appropriate concentration with 0.025% Tween20 just before spraying. The inoculated leaf disks or segments are incubated under defined conditions (temperature, relative humidity, light, etc.) according to the respective test system. A single evaluation of disease level is carried out 3 to 14 days after inoculation, depending on the pathosystem. Percent disease control relative to the untreated check leaf disks or segments is then calculated.
Wheat leaf segments cv. Kanzler are placed on agar in multiwell plates (24-well format). The leaf segments are then inoculated with a spore suspension of the fungus. Plates were stored in darkness at 19° C. and 75% relative humidity. The formulated test compound diluted in water was applied 1 day after inoculation. The leaf segments were incubated at 19° C. and 75% relative humidity under a light regime of 12 hours light/12 hours darkness in a climate cabinet and the activity of a compound was assessed as percent disease control compared to untreated when an appropriate level of disease damage appears in untreated check leaf segments (6 to 8 days after application).
The following compounds at 200 ppm in the applied formulation give at least 80% disease control in this test when compared to untreated control leaf disks under the same conditions, which show extensive disease development.

| melting point | Structure (SMILES) | inhibition at 20 ppm [1] | pest or weed control at 200 ppm [2] | pest or weed control at 200 ppm [3] |
| --- | --- | --- | --- | --- |
| 155 to 170 °C | CC(=O)Nc1ccc(-c2noc(C(F)(F)F)n2)cc1Cl [Compound 1.1, N-[2-chloro-4-[5-(trifluoromethyl)-1,2,4-oxadiazol-3-yl]phenyl]acetamide] | ≥ 80% | – | – |
| 77 to 84 °C | COCC(=O)Nc1ccc(-c2noc(C(F)(F)F)n2)cc1Cl [Compound 1.2, N-[2-chloro-4-[5-(trifluoromethyl)-1,2,4-oxadiazol-3-yl]phenyl]-2-methoxy-acetamide] | ≥ 80% | – | – |
| 153 to 179 °C | CC(=O)Nc1ccc(-c2noc(C(F)(F)F)n2)cc1C [Compound 1.3, N-[2-methyl-4-[5-(trifluoromethyl)-1,2,4-oxadiazol-3-yl]phenyl]acetamide] | ≥ 80% | ≥ 80% | ≥ 80% |
| 178 to 185 °C | CCC(=O)Nc1ccc(-c2noc(C(F)(F)F)n2)cc1C [Compound 1.4, N-[2-methyl-4-[5-(trifluoromethyl)-1,2,4-oxadiazol-3-yl]phenyl]propanamide] | ≥ 80% | – | – |
| 73 to 80 °C | COCC(=O)Nc1ccc(-c2noc(C(F)(F)F)n2)cc1C [Compound 1.5, 2-methoxy-N-[2-methyl-4-[5-(trifluoromethyl)-1,2,4-oxadiazol-3-yl]phenyl]acetamide] | ≥ 80% | ≥ 80% | – |
| 123 to 128 °C | CCC(=O)Nc1ccc(-c2noc(C(F)(F)F)n2)cc1F [Compound 1.6, N-[2-fluoro-4-[5-(trifluoromethyl)-1,2,4-oxadiazol-3-yl]phenyl]propanamide] | ≥ 80% | – | ≥ 80% |
| 120 to 126 °C | CC(=O)Nc1ccc(-c2noc(C(F)(F)F)n2)cc1F [Compound 1.7, N-[2-fluoro-4-[5-(trifluoromethyl)-1,2,4-oxadiazol-3-yl]phenyl]acetamide] | ≥ 80% | ≥ 80% | ≥ 80% |
| 42 to 46 °C | COCC(=O)Nc1ccc(-c2noc(C(F)(F)F)n2)cc1F [Compound 1.8, N-[2-fluoro-4-[5-(trifluoromethyl)-1,2,4-oxadiazol-3-yl]phenyl]-2-methoxy-acetamide] | ≥ 80% | ≥ 80% | – |
| 62 to 66 °C | C=CCON(C)C(=O)Nc1ccc(-c2noc(C(F)(F)F)n2)cc1C [Compound 1.11, 1-allyloxy-1-methyl-3-[2-methyl-4-[5-(trifluoromethyl)-1,2,4-oxadiazol-3-yl]phenyl]urea] | ≥ 80% | – | – |
| 114 to 117 °C | C=C(C)CONC(=O)Nc1ccc(-c2noc(C(F)(F)F)n2)cc1C [Compound 1.12, 1-(2-methylallyloxy)-3-[2-methyl-4-[5-(trifluoromethyl)-1,2,4-oxadiazol-3-yl]phenyl]urea] | ≥ 80% | ≥ 80% | – |
| 101 to 104 °C | C=CCONC(=O)Nc1ccc(-c2noc(C(F)(F)F)n2)cc1C [Compound 1.13, 1-allyloxy-3-[2-methyl-4-[5-(trifluoromethyl)-1,2,4-oxadiazol-3-yl]phenyl]urea] | ≥ 80% | ≥ 80% | – |
| – | CC(C)C(=O)Nc1ccc(-c2noc(C(F)(F)F)n2)cc1F [Compound 1.14, N-[2-fluoro-4-[5-(trifluoromethyl)-1,2,4-oxadiazol-3-yl]phenyl]-2-methyl-propanamide] | ≥ 80% | – | – |
| – | COCCC(=O)Nc1ccc(-c2noc(C(F)(F)F)n2)cc1F [Compound 1.15, N-[2-fluoro-4-[5-(trifluoromethyl)-1,2,4-oxadiazol-3-yl]phenyl]-3-methoxy-propanamide] | ≥ 80% | – | ≥ 80% |
| – | CCC(C)C(=O)Nc1ccc(-c2noc(C(F)(F)F)n2)cc1F (stereo not drawn) [Compound 1.16, N-[2-fluoro-4-[5-(trifluoromethyl)-1,2,4-oxadiazol-3-yl]phenyl]-2-methyl-butanamide] | ≥ 80% | – | – |
| – | CC(CO)(CCl)C(=O)Nc1ccc(-c2noc(C(F)(F)F)n2)cc1F (stereo not drawn) [Compound 1.17, 2-(chloromethyl)-N-[2-fluoro-4-[5-(trifluoromethyl)-1,2,4-oxadiazol-3-yl]phenyl]-3-hydroxy-2-methyl-propanamide] | ≥ 80% | ≥ 80% | – |
| – | CCC(COC)C(=O)Nc1ccc(-c2noc(C(F)(F)F)n2)cc1F (stereo not drawn) [Compound 1.18, N-[2-fluoro-4-[5-(trifluoromethyl)-1,2,4-oxadiazol-3-yl]phenyl]-2-(methoxymethyl) butanamide] | ≥ 80% | ≥ 80% | ≥ 80% |
| – | COCCCC(=O)Nc1ccc(-c2noc(C(F)(F)F)n2)cc1F [Compound 1.19, N-[2-fluoro-4-[5-(trifluoromethyl)-1,2,4-oxadiazol-3-yl]phenyl]-4-methoxy-butanamide] | ≥ 80% | ≥ 80% | – |
| – | COCCC(=O)Nc1ccc(-c2noc(C(F)(F)F)n2)cc1C [Compound 1.21, 3-methoxy-N-[2-methyl-4-[5-(trifluoromethyl)-1,2,4-oxadiazol-3-yl]phenyl]propanamide] | ≥ 80% | – | – |
| – | Cc1cc(-c2noc(C(F)(F)F)n2)ccc1NC(=O)C(C)(CO)CCl (stereo not drawn) [Compound 1.23, 2-(chloromethyl)-3-hydroxy-2-methyl-N-[2-methyl-4-[5-(trifluoromethyl)-1,2,4-oxadiazol-3-yl]phenyl]propanamide] | ≥ 80% | – | – |
| – | CCC(COC)C(=O)Nc1ccc(-c2noc(C(F)(F)F)n2)cc1C (stereo not drawn) [Compound 1.24, 2-(methoxymethyl)-N-[2-methyl-4-[5-(trifluoromethyl)-1,2,4-oxadiazol-3-yl]phenyl]butanamide] | ≥ 80% | – | – |
| – | COCCCC(=O)Nc1ccc(-c2noc(C(F)(F)F)n2)cc1C [Compound 1.25, 4-methoxy-N-[2-methyl-4-[5-(trifluoromethyl)-1,2,4-oxadiazol-3-yl]phenyl]butanamide] | ≥ 80% | – | – |
| – | Cc1cc(-c2noc(C(F)(F)F)n2)ccc1NC(=O)CC#N [Compound 1.26, 2-cyano-N-[2-methyl-4-[5-(trifluoromethyl)-1,2,4-oxadiazol-3-yl]phenyl]acetamide] | ≥ 80% | ≥ 80% | – |
| – | COC(C)C(=O)Nc1ccc(-c2noc(C(F)(F)F)n2)cc1C (stereo not drawn) [Compound 1.27, 2-methoxy-N-[2-methyl-4-[5-(trifluoromethyl)-1,2,4-oxadiazol-3-yl]phenyl]propanamide] | ≥ 80% | – | ≥ 80% |
| – | Cc1cc(-c2noc(C(F)(F)F)n2)ccc1NC(=O)CC(F)(F)F [Compound 1.28, 3,3,3-trifluoro-N-[2-methyl-4-[5-(trifluoromethyl)-1,2,4-oxadiazol-3-yl]phenyl]propanamide] | – | ≥ 80% | – |
